Assay results published in PMC11247499, “2,8-Disubstituted-1,5-naphthyridines as Dual Inhibitors of Plasmodium falciparum Phosphatidylinositol-4-kinase and Hemozoin Formation with In Vivo Efficacy” (Journal of Medicinal Chemistry, 2024).
Values after ≈ are worked out from the molar mass of the structure shown. Values joined by “and” are separate entries in the source; they are usually repeats but may differ in a detail not shown here. Equal values may be shown once. Read-outs that look alike come from different tables or passages of the source.

How the values were obtained:
Caco-2 permeability = assay type: in vitro ADME; details: human
[1] = In vitro microsomal stability, mouse; assay type: in vitro ADME; details: mouse liver microsomes, pH 7.4, read-out: microsomal CLint, app mouse
β-hematin (βH) formation = test: NP-40 mediated cell-free β-hematin assay; details: read-out: β-hematin IC50
PvPI4K = PvPI4K (Plasmodium vivax, UniProt A5KB26); test: biochemical; details: purified recombinant PvPI4K, 10 μM ATP, ADP-Glo; mean of N ≥ 2; read-out: PvPI4K IC50 ± SD
PvPI4K, sequence (A5KB26 entry or part of it): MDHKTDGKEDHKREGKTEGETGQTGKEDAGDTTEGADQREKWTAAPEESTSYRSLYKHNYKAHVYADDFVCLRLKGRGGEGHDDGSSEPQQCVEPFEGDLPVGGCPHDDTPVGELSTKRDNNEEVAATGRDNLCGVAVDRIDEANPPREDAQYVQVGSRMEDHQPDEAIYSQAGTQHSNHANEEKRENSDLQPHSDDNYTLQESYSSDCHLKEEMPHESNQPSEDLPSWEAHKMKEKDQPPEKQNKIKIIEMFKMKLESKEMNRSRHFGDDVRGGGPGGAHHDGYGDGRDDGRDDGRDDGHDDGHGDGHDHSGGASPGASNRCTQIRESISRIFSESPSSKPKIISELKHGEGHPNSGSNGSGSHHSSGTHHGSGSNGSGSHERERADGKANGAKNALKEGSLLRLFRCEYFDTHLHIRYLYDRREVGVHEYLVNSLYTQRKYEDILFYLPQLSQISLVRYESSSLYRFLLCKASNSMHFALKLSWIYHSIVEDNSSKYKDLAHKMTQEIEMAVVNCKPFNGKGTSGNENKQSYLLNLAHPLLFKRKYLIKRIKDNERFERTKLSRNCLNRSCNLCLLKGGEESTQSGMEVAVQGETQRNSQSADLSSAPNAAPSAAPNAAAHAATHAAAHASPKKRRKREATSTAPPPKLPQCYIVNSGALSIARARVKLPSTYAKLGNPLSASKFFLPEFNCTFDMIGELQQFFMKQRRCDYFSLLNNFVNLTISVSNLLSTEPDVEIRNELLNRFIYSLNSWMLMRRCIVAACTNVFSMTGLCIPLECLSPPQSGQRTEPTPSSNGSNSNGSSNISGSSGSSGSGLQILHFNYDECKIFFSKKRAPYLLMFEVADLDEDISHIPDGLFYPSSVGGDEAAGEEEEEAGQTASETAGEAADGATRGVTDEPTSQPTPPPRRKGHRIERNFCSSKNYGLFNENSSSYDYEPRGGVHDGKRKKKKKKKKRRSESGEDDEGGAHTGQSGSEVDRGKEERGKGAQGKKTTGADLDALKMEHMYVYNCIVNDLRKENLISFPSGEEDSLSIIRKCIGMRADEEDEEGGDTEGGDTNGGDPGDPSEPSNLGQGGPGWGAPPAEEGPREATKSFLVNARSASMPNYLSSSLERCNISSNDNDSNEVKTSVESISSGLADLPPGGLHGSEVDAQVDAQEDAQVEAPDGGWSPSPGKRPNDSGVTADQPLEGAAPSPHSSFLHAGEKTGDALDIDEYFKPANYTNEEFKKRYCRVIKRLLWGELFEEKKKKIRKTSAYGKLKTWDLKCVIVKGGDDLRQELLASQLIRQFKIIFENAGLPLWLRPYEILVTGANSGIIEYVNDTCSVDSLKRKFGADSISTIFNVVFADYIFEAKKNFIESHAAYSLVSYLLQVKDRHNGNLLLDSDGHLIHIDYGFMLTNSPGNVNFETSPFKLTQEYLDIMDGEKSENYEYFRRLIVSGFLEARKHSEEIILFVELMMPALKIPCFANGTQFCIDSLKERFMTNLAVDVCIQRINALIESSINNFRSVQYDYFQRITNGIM

[2] = In vitro microsomal stability, human; assay type: in vitro ADME; details: pooled human liver microsomes, pH 7.4, read-out: microsomal CLint, app human
[3] = Mouse pharmacokinetic studies; details: male, BalbC; for Vd at 24 h / half-life at 24 h / bioavailability at 24 h: in vivo; for Vd at 24 h / half-life at 24 h / in vivo mouse CLb: iv, 2 mg/kg; for bioavailability at 24 h: po
[4] = test system: Chinese Hamster Ovary (CHO) cell line; test: cells; assay type: cell-based; details: Cricetulus griseus, CHO, read-out: CHO IC50
[5] = In vitro microsomal stability, rat; assay type: in vitro ADME; details: rat liver microsomes, pH 7.4, read-out: microsomal CLint, app rat
cytochrome P450 2C19 = cytochrome P450 2C19 (Homo sapiens, UniProt P33261); test: Cytochrome P450 inhibition, 2C19; assay type: in vitro ADME
cytochrome P450 2C19, sequence (P33261 whole entry): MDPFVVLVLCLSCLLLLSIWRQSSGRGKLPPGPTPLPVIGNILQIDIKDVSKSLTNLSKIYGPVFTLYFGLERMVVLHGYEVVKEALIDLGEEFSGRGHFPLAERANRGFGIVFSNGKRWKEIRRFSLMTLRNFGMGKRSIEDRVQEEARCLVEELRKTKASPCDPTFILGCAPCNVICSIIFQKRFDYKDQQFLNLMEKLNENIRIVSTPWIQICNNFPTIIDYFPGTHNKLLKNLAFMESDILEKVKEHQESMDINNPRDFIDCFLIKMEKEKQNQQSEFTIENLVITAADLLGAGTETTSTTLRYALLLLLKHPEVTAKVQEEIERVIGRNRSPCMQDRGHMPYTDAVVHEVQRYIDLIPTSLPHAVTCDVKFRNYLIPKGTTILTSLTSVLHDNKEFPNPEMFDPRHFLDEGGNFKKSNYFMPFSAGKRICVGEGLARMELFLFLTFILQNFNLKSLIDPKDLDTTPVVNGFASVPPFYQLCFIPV

LogD shake-flask = assay type: physicochemical; details: n-octanol/phosphate buffer (1:1), phosphate buffer (pH 7.4) / n-octanol
[6] = Plasma protein binding, human; assay type: in vitro ADME; details: pooled human plasma, read-out: PPB fu, human
HuPI4Kβ = HuPI4Kβ (Homo sapiens, UniProt Q9UBF8); test: Human kinase inhibition, HuPI4Kβ; details: read-out: HuPI4Kβ, IC50
[7] = test system: P. falciparum NF54 strain; test: Antiplasmodial activity, parasite lactate dehydrogenase assay, NF54; assay type: cell-based, Plasmodium falciparum; details: Plasmodium falciparum, NF54, 72 h, parasite lactate dehydrogenase assay over 72 h; read-out: Pf IC50 ± SD NF54
cytochrome P450 2C9 = cytochrome P450 2C9 (Homo sapiens, UniProt P11712); test: Cytochrome P450 inhibition, 2C9; assay type: in vitro ADME
HuMINK1 = HuMINK1 (Homo sapiens, UniProt Q8N4C8); test: Human kinase inhibition, HuMINK1; details: read-out: HuMINK1, IC50
cytochrome P450 3A4 = cytochrome P450 3A4 (Homo sapiens, UniProt P08684); test: Cytochrome P450 inhibition, 3A4; assay type: in vitro ADME
HuMAP4K4 = HuMAP4K4 (Homo sapiens, UniProt O95819); test: Human kinase inhibition, HuMAP4K4; details: read-out: HuMAP4K4, IC50
HuMAP4K4, sequence (O95819 whole entry): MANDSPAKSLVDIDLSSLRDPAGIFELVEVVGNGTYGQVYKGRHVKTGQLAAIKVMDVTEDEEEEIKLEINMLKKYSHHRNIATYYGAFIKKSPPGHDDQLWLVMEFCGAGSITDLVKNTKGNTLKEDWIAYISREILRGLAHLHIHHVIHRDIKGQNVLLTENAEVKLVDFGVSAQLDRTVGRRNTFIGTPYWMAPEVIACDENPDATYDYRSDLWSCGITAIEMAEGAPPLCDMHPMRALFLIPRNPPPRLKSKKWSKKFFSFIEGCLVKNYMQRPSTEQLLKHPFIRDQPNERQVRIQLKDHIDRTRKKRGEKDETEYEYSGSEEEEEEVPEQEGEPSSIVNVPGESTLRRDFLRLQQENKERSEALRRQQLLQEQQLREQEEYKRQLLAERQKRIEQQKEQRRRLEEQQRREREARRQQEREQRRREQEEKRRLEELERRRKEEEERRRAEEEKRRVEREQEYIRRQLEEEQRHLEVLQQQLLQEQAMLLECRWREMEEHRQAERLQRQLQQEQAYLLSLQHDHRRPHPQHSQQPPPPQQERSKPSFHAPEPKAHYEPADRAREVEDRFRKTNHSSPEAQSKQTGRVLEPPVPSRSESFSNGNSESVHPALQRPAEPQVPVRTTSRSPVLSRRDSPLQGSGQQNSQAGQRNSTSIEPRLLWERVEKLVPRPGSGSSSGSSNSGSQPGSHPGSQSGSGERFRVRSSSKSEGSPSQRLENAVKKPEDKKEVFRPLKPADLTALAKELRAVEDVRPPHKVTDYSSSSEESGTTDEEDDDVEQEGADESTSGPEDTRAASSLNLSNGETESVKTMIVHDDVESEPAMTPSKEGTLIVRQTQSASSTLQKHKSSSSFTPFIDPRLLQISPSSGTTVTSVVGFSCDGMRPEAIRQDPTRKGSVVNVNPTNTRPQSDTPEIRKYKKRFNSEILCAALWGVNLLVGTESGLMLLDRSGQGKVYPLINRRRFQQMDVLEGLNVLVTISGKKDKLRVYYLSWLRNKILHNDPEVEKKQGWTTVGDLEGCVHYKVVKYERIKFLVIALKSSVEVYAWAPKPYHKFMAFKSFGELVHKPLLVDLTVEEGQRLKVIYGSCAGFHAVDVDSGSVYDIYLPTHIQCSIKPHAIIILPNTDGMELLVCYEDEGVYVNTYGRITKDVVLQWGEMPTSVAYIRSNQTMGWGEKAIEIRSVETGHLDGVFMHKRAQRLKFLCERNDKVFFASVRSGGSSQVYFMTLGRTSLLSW

[8] = Solubility, miniaturized shake flask method
HuPI3Kα = HuPI3Kα (Homo sapiens, UniProt P42336); test: Human kinase inhibition, HuPI3Kα; details: read-out: HuPI3Kα, IC50
HuPI3Kα, sequence (P42336 whole entry): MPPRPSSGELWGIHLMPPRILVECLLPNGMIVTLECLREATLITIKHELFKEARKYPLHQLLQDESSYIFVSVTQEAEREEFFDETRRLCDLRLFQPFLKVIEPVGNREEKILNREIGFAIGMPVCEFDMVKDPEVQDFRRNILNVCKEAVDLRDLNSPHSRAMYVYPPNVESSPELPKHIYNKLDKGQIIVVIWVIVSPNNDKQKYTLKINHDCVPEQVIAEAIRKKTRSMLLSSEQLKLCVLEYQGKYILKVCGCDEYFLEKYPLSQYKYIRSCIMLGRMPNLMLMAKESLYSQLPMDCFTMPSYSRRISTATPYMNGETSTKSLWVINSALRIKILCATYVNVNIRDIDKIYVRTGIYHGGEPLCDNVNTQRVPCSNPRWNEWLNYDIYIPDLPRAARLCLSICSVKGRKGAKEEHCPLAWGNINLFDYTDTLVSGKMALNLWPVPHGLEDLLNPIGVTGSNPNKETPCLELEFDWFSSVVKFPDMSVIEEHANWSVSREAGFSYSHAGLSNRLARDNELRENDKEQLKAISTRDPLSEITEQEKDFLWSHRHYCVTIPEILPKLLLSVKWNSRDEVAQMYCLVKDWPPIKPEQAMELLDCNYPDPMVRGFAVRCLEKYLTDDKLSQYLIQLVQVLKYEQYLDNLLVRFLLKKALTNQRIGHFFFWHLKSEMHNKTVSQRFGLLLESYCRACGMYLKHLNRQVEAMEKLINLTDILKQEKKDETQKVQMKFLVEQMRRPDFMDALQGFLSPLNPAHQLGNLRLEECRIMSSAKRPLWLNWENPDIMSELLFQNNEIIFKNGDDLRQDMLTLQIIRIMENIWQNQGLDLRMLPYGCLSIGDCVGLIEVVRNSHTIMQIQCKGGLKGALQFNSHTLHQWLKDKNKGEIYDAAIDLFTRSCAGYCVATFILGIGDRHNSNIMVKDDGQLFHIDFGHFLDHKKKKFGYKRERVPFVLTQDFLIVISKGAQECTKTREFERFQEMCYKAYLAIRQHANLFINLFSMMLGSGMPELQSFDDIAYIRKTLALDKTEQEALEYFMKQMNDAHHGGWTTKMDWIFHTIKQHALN
HuPI3Kα, sequence (P27986 whole entry partner): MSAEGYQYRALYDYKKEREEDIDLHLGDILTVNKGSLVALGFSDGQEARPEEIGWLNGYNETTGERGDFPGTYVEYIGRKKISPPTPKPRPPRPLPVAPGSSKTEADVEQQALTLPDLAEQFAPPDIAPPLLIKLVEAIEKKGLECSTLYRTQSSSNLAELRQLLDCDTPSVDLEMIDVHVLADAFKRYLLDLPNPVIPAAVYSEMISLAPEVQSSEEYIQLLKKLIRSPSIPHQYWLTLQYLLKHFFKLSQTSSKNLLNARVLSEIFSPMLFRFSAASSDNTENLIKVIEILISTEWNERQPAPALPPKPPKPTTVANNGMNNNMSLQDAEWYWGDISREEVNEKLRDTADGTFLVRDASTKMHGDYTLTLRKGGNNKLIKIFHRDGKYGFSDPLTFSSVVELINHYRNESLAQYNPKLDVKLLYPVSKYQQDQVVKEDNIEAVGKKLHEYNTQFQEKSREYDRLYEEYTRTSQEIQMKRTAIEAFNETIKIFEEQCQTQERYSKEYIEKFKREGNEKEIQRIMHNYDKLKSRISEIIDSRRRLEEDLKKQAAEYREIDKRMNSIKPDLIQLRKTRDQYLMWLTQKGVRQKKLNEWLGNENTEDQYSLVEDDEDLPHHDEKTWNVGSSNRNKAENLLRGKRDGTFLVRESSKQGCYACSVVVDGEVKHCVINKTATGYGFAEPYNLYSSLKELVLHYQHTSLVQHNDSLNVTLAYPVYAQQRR

[9] = test system: P. falciparum PI4K conditional knockdown line; test: microbe, parasite or virus in culture; assay type: cell-based, Plasmodium falciparum; details: for IC50: Plasmodium falciparum
Dd2 = test: microbe, parasite or virus in culture; assay type: cell-based; details: Plasmodium falciparum, DD2, 72 h, read-out: Dd2 IC50 ± SD
[10] = test system: multidrug-resistant strain, K1; test: Antiplasmodial activity, parasite lactate dehydrogenase assay, K1; assay type: cell-based, Plasmodium falciparum; details: Plasmodium falciparum, K1, 72 h, parasite lactate dehydrogenase assay over 72 h; read-out: Pf IC50 ± SD K1
Dd2_PI4K_CNV = test: microbe, parasite or virus in culture; assay type: cell-based; details: Plasmodium falciparum, 72 h, read-out: Dd2_PI4K_CNV IC50
[11] = Plasma protein binding, mouse; assay type: in vitro ADME; details: read-out: PPB fu, mouse
zebrafish embryos = test: in vivo
in vivo = details: zebrafish, in vivo
[12] = test system: P. falciparum male gametes; test: microbe, parasite or virus in culture; details: Plasmodium falciparum, 48 h, read-out: inhibition of exflagellation
[13] = cell-free NP-40 detergent-mediated assay, n = 2

FC(F)(F)c1ccc(-c2ccc3nccc(N[C@@H]4CCNC4)c3n2)cn1 [Compound 16, N-[(3R)-Pyrrolidin-3-yl]-6-[6-(trifluoromethyl)pyridin-3-yl]-1,5-naphthyridin-4-amine]
efflux ratio (Caco-2 permeability): 13
Papp A→B (Caco-2 permeability; A > B): 2.6 ×10⁻⁶ cm/s
CLint scaled at 1 µM [1]: < 467 mL/min/kg
IC50 (β-hematin (βH) formation; [13]): 32000 nM and < 60000 nM
IC50 (PvPI4K): 66 ± 21 nM
CLint scaled at 1 µM [2]: < 13 mL/min/kg
in vivo mouse CLu [3]: 76 mL/min/kg
Vd at 24 h [3]: 3.1 L/kg
half-life at 24 h [3]: 2.7 h
bioavailability at 24 h [3]: 96%
in vivo mouse CLb [3]: 13.70 mL/min/kg
IC50 ([4]; MTT assay over 48h): > 50000 nM
CLint scaled at 1 µM [5]: < 21 mL/min/kg
IC50 (cytochrome P450 2C19): > 20000 nM
logD at 3 h (LogD shake-flask): 0.96
fraction unbound at 5 h, 5 µM [6]: 0.18
IC50 (HuPI4Kβ): > 10000 nM
IC50 [7]: 86 ± 16 nM
IC50 (cytochrome P450 2C9): > 20000 nM
IC50 (HuMINK1): > 10000 nM
IC50 (cytochrome P450 3A4): > 20000 nM
IC50 (HuMAP4K4): > 10000 nM
solubility at 20 h ([8]; PBS, pH 6.5): 195 µM (≈ 70.1 µg/mL)
solubility at 20 h ([8]; aqueous solution): 200 µM (≈ 71.9 µg/mL)
IC50 (HuPI3Kα): 8900 nM
IC50 ([9]; 72 h, read-out: ABS IC50 for PfPI4K cKD, N=1, +aTc, experiment N=1, +aTc (500 nM, control conditions), 72 hours): 71 nM
IC50 ([9]; 72 h, read-out: ABS IC50 for PfPI4K cKD, N=1, no aTc, experiment N=1, no aTc (PI4K knockdown), 72 hours): 72 nM
IC50 ([9]; 72 h, read-out: ABS IC50 for PfPI4K cKD, N=2, +aTc, experiment N=2, +aTc (500 nM, control conditions), 72 hours): 118 nM
IC50 ([9]; 72 h, read-out: ABS IC50 for PfPI4K cKD, N=2, no aTc, experiment N=2, no aTc (PI4K knockdown), 72 hours): 118 nM
IC50 ([9]; 72 h, read-out: ABS IC50 for PfPI4K cKD, N=3, +aTc, experiment N=3, +aTc (500 nM, control conditions), 72 hours): 63 nM
IC50 ([9]; 72 h, read-out: ABS IC50 for PfPI4K cKD, N=3, no aTc, experiment N=3, no aTc (PI4K knockdown), 72 hours): 72 nM
IC50 ([9]; read-out: ABS IC50 for PfPI4K cKD, Mean + SD, +aTc, mean of N=3, +aTc (control conditions)): 84 ± 30 nM
IC50 ([9]; read-out: ABS IC50 for PfPI4K cKD, Mean + SD, no aTc, mean of N=3, no aTc (PI4K knockdown)): 88 ± 27 nM
ABS IC50 for PfPI4K cKD, N=1, fold shift ([9]; experiment N=1, +aTc vs no aTc): 0.98 fold
ABS IC50 for PfPI4K cKD, N=2, fold shift ([9]; experiment N=2, +aTc vs no aTc): 1.00 fold
ABS IC50 for PfPI4K cKD, N=3, fold shift ([9]; experiment N=3, +aTc vs no aTc): 0.88 fold
ABS IC50 for PfPI4K cKD, mean fold shift (fold decrease in IC50 on knockdown) ([9]; mean, +aTc vs no aTc): 0.95 fold

O[C@H]1CNCC[C@@H]1Nc1ccnc2ccc(-c3ccc(C(F)(F)F)nc3)nc12 (racemic) [Compound 28, rac-trans-4-[[6-[6-(Trifluoromethyl)pyridin-3-yl]-1,5-naphthyridin-4-yl]amino]piperidin-3-ol]
IC50 (β-hematin (βH) formation; [13]): 95000 ± 16000 nM
IC50 (PvPI4K): 967 ± 163 nM
IC50 (Dd2): 212 ± 127 nM
IC50 [10]: 624 ± 76 nM
IC50 (Dd2_PI4K_CNV): 182 ± 44 nM
IC50 ([4]; MTT assay over 48h): > 50000 nM
IC50 [7]: 168 ± 55 nM
solubility at 20 h ([8]; aqueous solution): 200 µM (≈ 77.9 µg/mL)

CN1CCC(Nc2ccnc3ccc(-c4ccc(C(F)(F)F)nc4)nc23)CC1 [Compound 21, N-(1-Methylpiperidin-4-yl)-6-[6-(trifluoromethyl)pyridin-3-yl]-1,5-naphthyridin-4-amine]
CLint scaled at 1 µM [1]: < 46 mL/min/kg
IC50 (β-hematin (βH) formation; [13]): 35000 nM and < 60000 nM
IC50 (PvPI4K): 175 ± 82 nM
CLint scaled at 1 µM [2]: < 10 mL/min/kg
in vivo mouse CLu [3]: 22 mL/min/kg
Vd at 24 h [3]: 12 L/kg
half-life at 24 h [3]: 16 h
bioavailability at 24 h [3]: 99%
in vivo mouse CLb [3]: 9.90 mL/min/kg
IC50 [10]: 162 ± 4 nM
IC50 ([4]; MTT assay over 48h): > 50000 nM
CLint scaled at 1 µM [5]: < 21 mL/min/kg
logD at 3 h (LogD shake-flask): 1.86
fraction unbound at 5 h, 5 µM [6]: 0.5
IC50 [7]: 52 ± 14 nM
solubility at 20 h ([8]; PBS, pH 6.5): 160 µM (≈ 62 µg/mL)
solubility at 20 h ([8]; aqueous solution): 160 µM (≈ 62 µg/mL)
fraction unbound at 5 h, 5 µM [11]: 0.3

CCN(CC)c1ccc(C=O)cc1 [DEAB, Diethylaminobenzaldehyde]
teratogen (zebrafish embryos; classification): yes
TI (teratogenic index) (zebrafish embryos; ratio between LC50 and AC50, >3 classifies as teratogen): 4.6
AC50 (in vivo; 50% larvae population show a teratogenic phenotype): 1000 nM
LC50 at 96 h (in vivo; concentration at which 50% of larvae die at 96 h post fertilization): 4600 nM

FC(F)(F)c1ccc(-c2ccc3nccc(NCC4CCNCC4)c3n2)cn1 [Compound 20, N-(Piperidin-4-ylmethyl)-6-[6-(trifluoromethyl)pyridin-3-yl]-1,5-naphthyridin-4-amine]
IC50 (β-hematin (βH) formation; [13]): 37000 nM and < 60000 nM
IC50 (PvPI4K): 1510 ± 643 nM
IC50 [10]: 350 ± 4 nM
IC50 ([4]; MTT assay over 48h): > 50000 nM
IC50 [7]: 65 ± 2 nM
solubility at 20 h ([8]; aqueous solution): 190 µM (≈ 73.6 µg/mL)

NC1CCN(c2ccnc3ccc(-c4ccc(C(F)(F)F)nc4)nc23)CC1 [Compound 18, 1-[6-[6-(Trifluoromethyl)pyridin-3-yl]-1,5-naphthyridin-4-yl]piperidin-4-amine]
IC50 (β-hematin (βH) formation; [13]): 137000 ± 4000 nM
IC50 (PvPI4K): 559 ± 30 nM
IC50 [10]: 477 ± 34 nM
IC50 ([4]; MTT assay over 48h): > 50000 nM
IC50 [7]: 420 ± 87 nM
solubility at 20 h ([8]; aqueous solution): 160 µM (≈ 59.7 µg/mL)

CN1CCC(Nc2ccnc3ccc(-c4cccnc4C(F)(F)F)nc23)CC1 [Compound 30, N-(1-Methylpiperidin-4-yl)-6-[2-(trifluoromethyl)pyridin-3-yl]-1,5-naphthyridin-4-amine]
IC50 (β-hematin (βH) formation; [13]): 75000 ± 6000 nM
IC50 (PvPI4K): 170 ± 38 nM
IC50 [10]: 300 ± 11 nM
IC50 ([4]; MTT assay over 48h): > 50000 nM
IC50 [7]: 270 ± 96 nM
solubility at 20 h ([8]; aqueous solution): 200 µM (≈ 77.5 µg/mL)

CN1CCC(Nc2ccnc3ccc(-c4ccc(C#N)nc4)nc23)CC1 [Compound 32, 5-[8-[(1-Methylpiperidin-4-yl)amino]-1,5-naphthyridin-2-yl]pyridine-2-carbonitrile]
IC50 (β-hematin (βH) formation; [13]): 51000 ± 2000 nM
IC50 (PvPI4K): 676 ± 23 nM
IC50 [10]: 730 ± 53 nM
IC50 ([4]; MTT assay over 48h): > 50000 nM
IC50 [7]: 160 ± 40 nM
solubility at 20 h ([8]; aqueous solution): 200 µM (≈ 68.9 µg/mL)

NS(=O)(=O)c1cccc(-c2ccc3nccc(-c4ccnc(C(F)(F)F)c4)c3n2)c1 [Compound 1]
IC50 (β-hematin (βH) formation): > 500000 nM
inhibition at 2 µM [12]: 60%
IC50 ([4]; 48 h): 6000 nM
